Assay results from US5231091A, “Bis-arylphosphate ester antagonists of platelet activating factor” (priority 1992, dated 1993).
Structures can show the parent of a compound that is named as a salt.

test system: PAF induced lethality; experiment: PAF induced lethality in mice; assay type: in vivo; conditions: I.P. 10 mg/kg; corrected for control lethality
Description: PAF given I.V. to mice causes an immediate hypotensive shock leading to death in 1 hour or less. Compounds were given intraperitoneally or P.O. at various times before the PAF challenge. Animals alive after 2 hours were counted and the activity of test compounds expressed as % survival corrected for any control (saline treated) animals which survived the PAF challenge.

In order of rising “PAF induced lethality, % protection” value:
1. CCCCCCCCCCCCCCOc1cccc(OP(=O)([O-])Oc2cccc(C[n+]3csc(C)c3)c2)c1C(=O)OC [3-[[3-[[Hydroxy[2-(methoxycarbonyl)-3-(tetradecyloxy)phenoxy]phosphinyl]oxy]phenyl]methyl]-5-methylthiazolium, hydroxide, inner salt]  0%
2. CCCCCCCCCCCCCCOc1cccc(OP(=O)([O-])Oc2cccc(C[n+]3ccsc3)c2)c1C(=O)OC [3-[[3-[[Hydroxy[2-(methoxycarbonyl)-3-(tetradecyloxy)-phenoxy]phosphinyl]oxy]phenyl]methyl]-thiazolium, hydroxide, inner salt]  12%
3. CCCCCCCCCCCCOc1cc(C(C)(C)C)c(OP(=O)([O-])Oc2cccc(C[n+]3csc(C)c3)c2)cc1C(C)(C)C [3-[[3-[[[2,5-Bis(1,1-dimethylethyl)-4-(dodecyloxy)phenoxy] hydroxyphosphinyl]oxy]phenyl]methyl]-5-methyl-thiazolium, hydroxide, inner salt]  36%
4. CCCCCCCCCCCCCCCCOc1ccc(OP(=O)([O-])Oc2cccc(C[n+]3ccsc3)c2)cc1 [3-[[3-[[[4-(Hexadecyloxy)phenoxy]hydroxyphosphinyl]-oxy]phenyl]methyl]thiazolium, hydroxide, inner salt]  96%

biological target: T1, PAF receptor (Oryctolagus cuniculus, UniProt G1TEI7); experiment: Inhibition of PAF-induced aggregation in rabbit platelet rich plasma; assay type: cell-based, rabbit (male New Zealand White); conditions: not given
T1 construct: endogenous in cells; host or cells: rabbit platelets (male New Zealand White)
T1 sequence (G1TEI7 1-342): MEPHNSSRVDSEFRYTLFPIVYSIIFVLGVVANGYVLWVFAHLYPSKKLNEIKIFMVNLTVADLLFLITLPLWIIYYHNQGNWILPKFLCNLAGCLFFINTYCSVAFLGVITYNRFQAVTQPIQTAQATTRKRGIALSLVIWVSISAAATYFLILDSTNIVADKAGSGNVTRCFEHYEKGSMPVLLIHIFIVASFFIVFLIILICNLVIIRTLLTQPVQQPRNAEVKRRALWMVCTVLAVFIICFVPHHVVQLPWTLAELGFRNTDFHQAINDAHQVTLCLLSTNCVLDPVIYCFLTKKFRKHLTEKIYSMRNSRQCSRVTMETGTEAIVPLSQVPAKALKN
Description: Test compounds were evaluated as PAF receptor antagonists in vitro by measuring inhibition of PAF (platelet activating factor) induced platelet aggregation. Platelet aggregation was measured by a modification of the method described in A. Wissner, et. al., J. Med. Chem., 27, 1174, 1984.
Approximately 120-240 ml of blood were collected by cardiac puncture from unanesthetized male New Zealand White rabbits (Whaley's Summit View Farms, Belvedere, N.J.) with the use of 3.2% sodium citrate anticoagulant (1 part of citrate/10 parts of blood). All syringes and pipets were plastic. The blood was gently mixed and immediately centrifuged at 800 rpm for 10-15 minutes at room temperature to recover the platelet rich plasma (PRP). Platelet poor plasma (PPP) was prepared by centrifuging PRP at 2800 rpm for 10 minutes at room temperature.
Dilutions (1:3000) of PRP in Isoton® diluent were made and platelet counts were determined on a Coulter Thrombocounter which was standardized with platelet reference standards (Interscience Platelet Control, Portland, Oreg.). PRP platelet counts were adjusted to approximately 400,000-500,000 platelets/μl by the addition of PPP.
L-PAF was obtained from Calbiochem. A stock solution of 1-2 E-3M was prepared in 10% ethanol in water or 100% methanol and serial working dilutions were made using phosphate buffered saline (PBS). 1-2 E-3M stock solutions of test compounds were prepared in 100% methanol and serially diluted in PBS. All solutions were made up in plastic tubes, stored on ice and protected from heat and light. Solutions were prepared fresh or frozen at -20° C. and used within 48 hours.
Incubation mixtures consisted of 400 μl PRP, 50 μl of PBS diluent or test compound and 50 μl of PAF agonist. More specifically, 400 μl of PRP was stabilized in a cuvette for 1-2 minutes at 37° C. in the aggregometer to achieve a stable baseline, then 50 μl of PBS or test compound, was added and incubated for 5 minutes before addition of the challenge concentration of PAF (final concentration of 5E-8M or 1E-7M, as determined from the dose response curve for PAF for that experiment). Aggregation was monitored for 5 minutes. Samples containing test compound or diluent were run simultaneously for comparison. Test compounds were initially evaluated at a screening concentration of 1E-5M.
The recording equipment consisted of a dual channel Chronolog aggregometer connected to a dual channel 10 MV full scale deflection Omniscribe chart recorder (Houston Instruments). […] The bead suspension was used to set the 0% light transmission mark and clear water was used to set the 100% light transmission mark. These limits defined a full scale deflection. The aggregation traces were analyzed by a digitizing method (C. Kohler and B. Zoltan, J. Pharm. Methods, 12, 113, 1984) with x, y coordinate data stored in a computer file. A suitable program computed parameters of interest such as the magnitude of aggregation.

In order of falling IC50:
1. CCCCCCCCCCCCCCCCCCNC(=O)Oc1cccc(OP(=O)([O-])Oc2cccc(C[n+]3ccsc3)c2)c1C [3-[[3-[[Hydroxy[2-methyl-3-[[(octadecylamino)carbonyl]oxy]phenoxy]phosphinyl]oxy]phenyl]methyl]thiazolium, hydroxide, inner salt]  3.72 µM
2. CCCCCCCCCCCCCCCCCCNC(=O)Oc1cccc(OP(=O)([O-])Oc2cccc(C[n+]3csc(C)c3)c2)c1C [3-[[3-[[Hydroxy[2-methyl-3-[[(octadecylamino)carbonyl]oxy]phenoxy]phosphinyl]oxy]phenyl]methyl]-5-methylthiazolium, hydroxide, inner salt]  1.8 µM

same assay, conditions: rabbit platelet rich plasma; PAF challenge 5E-8M; number of experiments in parentheses; read-out: IC50 inhibition of PAF-induced aggregation

In order of falling IC50:
1. Cc1c[n+](Cc2cccc(OP(=O)([O-])Oc3ccc(OCc4ccccc4)cc3)c2)cs1 [3-[[3-[[Hydroxy[4-(phenylmethoxy)phenoxy]phosphinyl]oxy]phenyl]methyl]-5-methyl-thiazolium, hydroxide, inner salt]  1530 µM
2. CCCCCCCCCCCCCCOc1cccc(OP(=O)([O-])Oc2cccc(C[n+]3ccccc3)c2)c1OC [1-[[3-[[Hydroxy[2-methoxy-3-(tetradecyloxy)phenoxy]-phosphinyl]oxy]phenyl]methyl]-pyridinium, hydroxide, inner salt]  165 µM
3. CCCCCCCCCCCCCCOc1ccccc1OP(=O)([O-])Oc1cccc(C[n+]2ccsc2)c1 [3-[[3-[ [Hydroxy[2-(tetradecyloxy)phenoxy]phosphinyl]-oxy]phenyl]methyl]thiazolium, hydroxide, inner salt]  57.5 µM
4. CCCCCCCCCCCCOc1cccc(OP(=O)([O-])Oc2cccc(C[n+]3ccsc3)c2)c1 [3-[[3-[[[3-(Dodecyloxy)phenoxy]hydroxyphosphinyl]-oxy]phenyl]methyl]thiazolium, hydroxide, inner salt]  52.8 µM
5. CCCCCCCCCCCCOc1cc(OP(=O)([O-])Oc2cccc(C[n+]3ccsc3)c2)c(C(C)(C)C)cc1C(C)(C)C [3-[[3-[[[2,4-Bis(1,1-dimethylethyl)-5-(dodecyloxy)phenoxy]hydroxyphosphinyl]oxy]phenyl]methyl]thiazolium, hydroxide, inner salt]  30.2 µM
6. CCCCCCCCCCCCCCCCOc1cccc(OP(=O)([O-])Oc2cccc(C[n+]3cccc4ccccc43)c2)c1C [1-[[3-[[[3-(hexadecyloxy)-2-methylphenoxy]hydroxyphosphinyl]oxy]phenyl]methyl]quinolinium]  29.6 µM
7. CCCCCCCCCCCCOc1ccc2ccc(OP(=O)([O-])Oc3cccc(C[n+]4ccsc4)c3)cc2c1 [3-[[3-[[[[7-(dodecyloxy)-2-naphthalenyl]oxy]hydroxyphosphinyl]oxy]phenyl]methyl]thiazolium, hydroxide, inner salt]  26.4 µM
8. CCCCCCCCCCCCOc1cccc(OP(=O)([O-])Oc2cccc(C[n+]3cccc4ccccc43)c2)c1OC [-[[3-[[[3-(Dodecyloxy)-2-methoxyphenoxy]hydroxyphosphinyl]oxy]phenyl]methyl]quinolinium, hydroxide, inner salt]  24.7 µM
9. CCCCCCCCCCCCCCCCOc1cccc(OP(=O)(O)Oc2cccc(C[n+]3cccc4ccccc43)c2)c1 [1-[[3-[[[3-(Hexadecyloxy)phenoxy]hydroxyphosphinyl]-oxy]phenyl]methyl]-quinolinium, hydroxide]  21.8 µM
10. CCCCCCCCCCCCCCOc1cccc(OP(=O)([O-])Oc2cccc(C[n+]3ccc4ccccc4c3)c2)c1OC [2-[[3-[[Hydroxy[2-methoxy-3-(tetradecyloxy)phenoxy]-phosphinyl]oxy]phenyl]methyl]-isoquinolinium, hydroxide, inner salt]  20 µM
11. CCCCCCCCCCCCCCc1cccc(OP(=O)([O-])Oc2cccc(C[n+]3ccsc3)c2)c1 [3-[[3-[[Hydroxy(3-tetradecylphenoxy)phosphinyl]oxy]-phenyl]methyl]thiazolium, hydroxide, inner salt]  18.8 µM
12. CCCCCCCCCCCCCCCCOc1cccc(OP(=O)([O-])Oc2cccc(C[n+]3ccccc3)c2)c1 [1-[[3-[[[3-(Hexadecyloxy)phenoxy]hydroxyphosphinyl]-oxy]phenyl]methyl]-pyridinium, hydroxide inner salt]  15.4 µM
13. CCCCCCCCCCCCCCOc1cccc(OP(=O)([O-])Oc2cccc(C[n+]3csc(C)c3)c2)c1 [3-[[3-[[Hydroxy[3-(tetradecyloxy)phenoxy]phosphinyl]-oxy]phenyl]methyl]-5-methyl-thiazolium, hydroxide, inner salt]  8.82 µM
14. CCCCCCCCCCCCCCOc1cccc(OP(=O)([O-])Oc2cccc(C[n+]3cccc4ccccc43)c2)c1OC [1-[[3-[[Hydroxy[2-methoxy-3-(tetradecyloxy)phenoxy]-phosphinyl]oxy]phenyl]methyl]-quinolinium, hydroxide, inner salt]  8 µM
15. CCCCCCCCCCCCCCCCOc1cccc(OP(=O)([O-])Oc2ccccc2C[n+]2ccsc2)c1 [3-[[2-[[[3-(Hexadecyloxy)phenoxy]hydroxyphosphinyl]oxy]phenyl]methyl]-thiazolium, hydroxide, inner salt]  6.36 µM
16. CCCCCCCCCCCCCCOc1cccc(OP(=O)([O-])Oc2cccc(C[n+]3cccc4ccccc43)c2)c1C(=O)OC [1-[[3-Hydroxy[2-(methoxycarbonyl)-3-(tetradecyloxy)-phenoxy]phosphinyl]oxy]phenyl]methyl]quinolinium, hydroxide, inner salt]  6.26 µM
17. CCCCCCCCCCCCCCOc1cccc(OP(=O)([O-])Oc2cccc(C[n+]3ccsc3)c2)c1 [3-[[3-[[Hydroxy[3-(tetradecyloxy)phenoxy]phosphinyl]-oxy]phenyl]methyl]thiazolium, hydroxide, inner salt]  6.15 µM
18. CCCCCCCCCCCCCCOc1cccc(COP(=O)([O-])Oc2cccc(C[n+]3ccsc3)c2)c1 [3-[[3-[[Hydroxy[[3-(tetradecyloxy)phenyl]methoxy]-phosphinyl]oxy]phenyl]methyl]thiazolium, hydroxide, inner salt]  4.22 µM
19. CCCCCCCCCCCCCCCCOc1ccc(OP(=O)([O-])Oc2cccc(C[n+]3ccsc3)c2)cc1 [3-[[3-[[[4-(Hexadecyloxy)phenoxy]hydroxyphosphinyl]-oxy]phenyl]methyl]thiazolium, hydroxide, inner salt]  3.28 µM
20. CCCCCCCCCCCCCCOc1cccc(OP(=O)([O-])Oc2cccc(C[n+]3ccsc3)c2)c1C(=O)OC [3-[[3-[[Hydroxy[2-(methoxycarbonyl)-3-(tetradecyloxy)-phenoxy]phosphinyl]oxy]phenyl]methyl]-thiazolium, hydroxide, inner salt]  2.7 µM
21. CCCCCCCCCCCCOc1cccc(OP(=O)([O-])Oc2cccc(C[n+]3ccsc3)c2)c1OC [3-[[3-[[[3-(Dodecyloxy)-2-methoxyphenoxy]hydroxyphosphinyl]oxy]phenyl]methyl]thiazolium, hydroxide, inner salt]  1.72 µM
22. CCCCCCCCCCCCCCOc1cccc(OP(=O)([O-])Oc2cccc(C[n+]3csc(C)c3)c2)c1C(=O)OC [3-[[3-[[Hydroxy[2-(methoxycarbonyl)-3-(tetradecyloxy)phenoxy]phosphinyl]oxy]phenyl]methyl]-5-methylthiazolium, hydroxide, inner salt]  0.521 µM
23. CCCCCCCCCCCCOc1cc(C(C)(C)C)c(OP(=O)([O-])Oc2cccc(C[n+]3csc(C)c3)c2)cc1C(C)(C)C [3-[[3-[[[2,5-Bis(1,1-dimethylethyl)-4-(dodecyloxy)phenoxy] hydroxyphosphinyl]oxy]phenyl]methyl]-5-methyl-thiazolium, hydroxide, inner salt]  0.412 µM
